Here are results for eight molecules from paper PMC12596218 (Journal of Lipid Research, 2025).

The target of data set [1] is mAsbt. The note with it: ref 42 Hallén et al. (2002); read-out: Ki mAsbt inhibition; cited from earlier work.
Data set [2] has as its system mAsbt. Put plainly: mAsbt inhibition and TC transport by Hallén et al. (2002). The data set is classed as cell-based, mouse. The following applies: from Ki values of ref 42.
Data set [3] addresses T1, ASBT (Homo sapiens, UniProt Q12908).
T1 construct: stably transfected with the full open reading frames of human NTCP, ASBT, SOAT, OATP1B1, OATP1B3, OATP2B1, and murine Asbt (mAsbt); expressed in transfected cells; host or cells: HEK293 (Flp-In), stably transfected, tetracycline-induced
T1 sequence (Q12908 1-348): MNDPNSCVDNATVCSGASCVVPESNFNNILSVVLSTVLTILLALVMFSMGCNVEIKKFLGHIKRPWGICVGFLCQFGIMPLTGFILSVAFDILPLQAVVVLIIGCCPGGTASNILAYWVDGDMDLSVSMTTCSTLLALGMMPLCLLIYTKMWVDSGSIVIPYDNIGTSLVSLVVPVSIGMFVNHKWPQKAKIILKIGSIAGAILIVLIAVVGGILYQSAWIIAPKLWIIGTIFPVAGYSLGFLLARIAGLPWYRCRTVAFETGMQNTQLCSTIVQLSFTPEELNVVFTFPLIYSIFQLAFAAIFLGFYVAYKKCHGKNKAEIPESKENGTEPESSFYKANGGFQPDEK
In words: [3H]TC transport and inhibition assay in ASBT-HEK293 cells. The data set is classed as cell-based. The note with it: inhibitor at 100 μM, 1 μM [3H]TC, 10 min. The source says: (§1) Human embryonic kidney HEK293 cells, stably transfected with the full open reading frames of human NTCP, ASBT, SOAT, OATP1B1, OATP1B3, OATP2B1, and murine Asbt (mAsbt) were used as reported ([18], [20], [21], [22], [23]). The NTCP, ASBT, and mAsbt constructs were C-terminally tagged with the FLAG epitope, and the SOAT construct was C-terminally tagged with green fluorescent protein. Non-transfected Flp-In HEK293 cells (Thermo Fisher Scientific) served as the control. All cell lines were maintained at 37°C, 5% CO2 and 95% humidity in DMEM/F-12 medium (Thermo Fisher Scientific) supplemented with 10% fetal calf serum (Sigma-Aldrich), 4 mM L-glutamine (PAA) and penicillin/streptomycin (PAA). Expression of the respective carrier protein was induced by tetracycline treatment at 1 μg/ml (Carl Roth GmbH + Co. KG).
(§2) Cells were seeded onto poly-L-lysine-coated 96-well plates, induced with 1 μg/ml tetracycline, and grown to confluence over 72 h at 37°C. Then, cells were washed with tempered (37°C) phosphate-buffered saline (PBS, containing 137.0 mM NaCl, 2.7 mM KCl, 1.5 mM KH2PO4, and 7.3 mM Na2HPO4, at pH 7.4) and preincubated with 80 μl sodium transport buffer (STB, containing 142.9 mM NaCl, 4.7 mM KCl, 1.2 mM MgSO4, 1.2 mM KH2PO4, 1.8 mM CaCl2, and 20.0 mM HEPES, at pH 7.4) for 5 min at 37°C. For inhibition studies, the medium was replaced by 80 μl STB containing the respective inhibitor or solvent alone and cells were further incubated for 5 min at 37°C. Transport experiments were started by adding 20 μl of a 5-fold concentrated substrate solution (solved in STB). For transport experiments under sodium-free conditions the same buffer composition was used as for STB, but sodium chloride was substituted with equimolar concentrations of choline chloride as previously reported ([20], [24]). Transport experiments were stopped by washing twice with ice-cold PBS and the plates were kept cool on ice until adding the lysis buffer [1% sodium dodecyl sulfate (SDS) and 1 N NaOH]. Then, the cell-associated radioactivity of the respective tritium-labeled substrate or ligand was quantified by liquid scintillation counting using MicroScint-20 scintillation cocktail (Revvity) in a Packard Microplate Scintillation Counter TopCount NXT (Packard Instrument Company). For IC50 transport inhibition measurements, the mean uptake values measured in non-carrier-expressing HEK293 control cells were defined as 0% uptake control and were subtracted from all other values. Values from cells without inhibitor and solvent alone were set to 100%. Finally, all net transport data were expressed as uptake or binding as % of control. All transport or inhibition graphs were generated with GraphPad Prism 6 (GraphPad). Determination of half maximal inhibitory concentrations (IC50) was done by nonlinear regression analysis using the equation log (inhibitor) versus response—variable slope settings. All data points of the IC50 curves represent means ± SD of quadruplicate determinations. For Km measurements, BS uptake in the absence of sodium was regarded as carrier-independent unspecific uptake and was subtracted from the transport rates in the presence of sodium to obtain carrier-specific uptake rates (indicated as dashed lines). From the specific uptake rates, Michaelis Menten Km values were calculated by non-linear regression analysis.

The target in the next data set is T2, SOAT (Homo sapiens, UniProt Q3KNW5).
T2 construct: stably transfected with the full open reading frames of human NTCP, ASBT, SOAT, OATP1B1, OATP1B3, OATP2B1, and murine Asbt (mAsbt); expressed in transfected cells; host or cells: HEK293 (Flp-In), stably transfected, tetracycline-induced
T2 sequence (Q3KNW5 1-377): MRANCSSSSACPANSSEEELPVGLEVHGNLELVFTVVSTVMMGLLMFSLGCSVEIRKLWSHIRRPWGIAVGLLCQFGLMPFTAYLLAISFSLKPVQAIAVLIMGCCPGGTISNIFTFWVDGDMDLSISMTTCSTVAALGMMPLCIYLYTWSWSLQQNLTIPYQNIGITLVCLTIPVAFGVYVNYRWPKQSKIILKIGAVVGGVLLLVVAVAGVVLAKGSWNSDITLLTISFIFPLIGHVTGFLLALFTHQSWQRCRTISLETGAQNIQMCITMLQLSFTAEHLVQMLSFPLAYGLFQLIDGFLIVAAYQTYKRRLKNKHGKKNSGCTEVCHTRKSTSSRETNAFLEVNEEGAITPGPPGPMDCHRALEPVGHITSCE
In words: [3H]DHEAS transport inhibition assay in SOAT-HEK293 cells. The following applies: inhibitor at 100 μM, 1 μM [3H]DHEAS, 10 min. The data set is classed as cell-based.
Source text: as §1, §2

Data set [4] deals with T1, ASBT. Put plainly: Transport inhibition and recovery assay (inhibitor washout) in ASBT-HEK293 cells. The data set is classed as cell-based. The note with it: 100 μM inhibitor, 5 min preincubation, 1 μM [3H]TC.
Data set [5] concerns the target T1, ASBT. The description is as above. The data set is classed as cell-based. The note with it: 100 μM inhibitor 5 min, 240 min recovery. Here is the method: HEK293 cells stably expressing ASBT were seeded onto poly-L-lysine-coated 96-well plates, induced with 1 μg/ml tetracycline, and grown to confluence over 72 h at 37°C. Non-carrier-expressing HEK293 cells were used as control. Then, cells were washed with tempered (37°C) PBS and equilibrated for 5 min with STB. […] After inhibitor preincubation, cells were washed with tempered (37°C) PBS and further incubated in inhibitor-free DMEM (Thermo Fisher Scientific) for 30, 60, 120, or 240 min at 37°C. […] Finally, cell associated radioactivity was determined using the MicroBeta2 liquid scintillation counter (Revvity). For each inhibitor, the mean values from noncarrier-expressing HEK293 cells were set to 0% and transport measurements in the absence of inhibitor (solvent control) were set to 100%.
In the second setup, the inhibitor was thoroughly washed out after the preincubation phase and cells were placed on inhibitor-free medium for different time intervals of 0–240 min (indicated by “recovery time” in Fig. 7A).

Substrate in data set [6]: C[C@H](CCC(=O)NCCS(=O)(=O)O)[C@H]1CC[C@H]2[C@@H]3[C@H](O)C[C@@H]4C[C@H](O)CC[C@]4(C)[C@H]3C[C@H](O)[C@]12C
In words: cells, lysate or membranes. The note with it: other: sodium-dependent specific uptake, initial linear phase, pH 7.4.

On to `CCCC[C@]1(CC)CS(=O)(=O)c2ccccc2[C@@H](c2ccccc2)N1` [2164U90], for which the Ki at mAsbt [1] was 68 nM. Also, in the data set on mAsbt [2], the “Difference in inhibitor potency mAsbt versus ASBT” value turned out to be 150 fold.

On to `Cc1c(C)c2c(c(C)c1O)CCC(C)(COc1ccc(CC3SC(=O)NC3=O)cc1)O2` (stereo not drawn) [troglitazone], for which, on ASBT [3], the “Inhibition of ASBT [3H]TC transport” value is reported as “significantly inhibited”. For the same molecule, the “Inhibition of SOAT [3H]DHEAS transport” value at SOAT is “significantly inhibited”. In addition, the “ASBT inhibition with inhibitor present during uptake (inhibitor + [3H]TC)” value on ASBT [4] is reported as “nearly complete ASBT inhibition”. Also, at ASBT [5], the “ASBT recovery after washout and 240 min in inhibitor-free medium” value was “only partial recovery”.

B1: ASBT (Homo sapiens) (protein)
chain: MNDPNSCVDNATVCSGASCVVPESNFNNILSVVLSTVLTILLALVMFSMGCNVEIKKFLGHIKRPWGICVGFLCQFGIMPLTGFILSVAFDILPLQAVVVLIIGCCPGGTASNILAYWVDGDMDLSVSMTTCSTLLALGMMPLCLLIYTKMWVDSGSIVIPYDNIGTSLVSLVVPVSIGMFVNHKWPQKAKIILKIGSIAGAILIVLIAVVGGILYQSAWIIAPKLWIIGTIFPVAGYSLGFLLARIAGLPWYRCRTVAFETGMQNTQLCSTIVQLSFTPEELNVVFTFPLIYSIFQLAFAAIFLGFYVAYKKCHGKNKAEIPESKENGTEPESSFYKANGGFQPDEK
With B1, the Km in data set [6] (37.0 °C) amounted to 46.0 µM.

B2: ASBT S294T/I295V (ASBT→mAsbt) (Homo sapiens; I295V/S294T) (protein)
chain: MNDPNSCVDNATVCSGASCVVPESNFNNILSVVLSTVLTILLALVMFSMGCNVEIKKFLGHIKRPWGICVGFLCQFGIMPLTGFILSVAFDILPLQAVVVLIIGCCPGGTASNILAYWVDGDMDLSVSMTTCSTLLALGMMPLCLLIYTKMWVDSGSIVIPYDNIGTSLVSLVVPVSIGMFVNHKWPQKAKIILKIGSIAGAILIVLIAVVGGILYQSAWIIAPKLWIIGTIFPVAGYSLGFLLARIAGLPWYRCRTVAFETGMQNTQLCSTIVQLSFTPEELNVVFTFPLIYTVFQLAFAAIFLGFYVAYKKCHGKNKAEIPESKENGTEPESSFYKANGGFQPDEK
For the molecule B2, in data set [6], the Km was 25.9 µM.

B3: NTCP (Homo sapiens) (protein)
chain: MEAHNASAPFNFTLPPNFGKRPTDLALSVILVFMLFFIMLSLGCTMEFSKIKAHLWKPKGLAIALVAQYGIMPLTAFVLGKVFRLKNIEALAILVCGCSPGGNLSNVFSLAMKGDMNLSIVMTTCSTFCALGMMPLLLYIYSRGIYDGDLKDKVPYKGIVISLVLVLIPCTIGIVLKSKRPQYMRYVIKGGMIIILLCSVAVTVLSAINVGKSIMFAMTPLLIATSSLMPFIGFLLGYVLSALFCLNGRCRRTVSMETGCQNVQLCSTILNVAFPPEVIGPLFFFPLLYMIFQLGEGLLLIAIFWCYEKFKTPKDKTKMIYTAATTEETIPGALGNGTYKGEDCSPCTA
In the case of B3, the Km in data set [6] (37.0 °C) worked out at 90.9 µM.

B4: NTCP M290S (NTCP→ASBT) (Homo sapiens; M290S) (protein)
chain: MEAHNASAPFNFTLPPNFGKRPTDLALSVILVFMLFFIMLSLGCTMEFSKIKAHLWKPKGLAIALVAQYGIMPLTAFVLGKVFRLKNIEALAILVCGCSPGGNLSNVFSLAMKGDMNLSIVMTTCSTFCALGMMPLLLYIYSRGIYDGDLKDKVPYKGIVISLVLVLIPCTIGIVLKSKRPQYMRYVIKGGMIIILLCSVAVTVLSAINVGKSIMFAMTPLLIATSSLMPFIGFLLGYVLSALFCLNGRCRRTVSMETGCQNVQLCSTILNVAFPPEVIGPLFFFPLLYSIFQLGEGLLLIAIFWCYEKFKTPKDKTKMIYTAATTEETIPGALGNGTYKGEDCSPCTA
As to B4, the Km in data set [6] came out at 15.9 µM.

B5: NTCP M290T/I291V (NTCP→mAsbt) (Homo sapiens; I291V/M290T) (protein)
chain: MEAHNASAPFNFTLPPNFGKRPTDLALSVILVFMLFFIMLSLGCTMEFSKIKAHLWKPKGLAIALVAQYGIMPLTAFVLGKVFRLKNIEALAILVCGCSPGGNLSNVFSLAMKGDMNLSIVMTTCSTFCALGMMPLLLYIYSRGIYDGDLKDKVPYKGIVISLVLVLIPCTIGIVLKSKRPQYMRYVIKGGMIIILLCSVAVTVLSAINVGKSIMFAMTPLLIATSSLMPFIGFLLGYVLSALFCLNGRCRRTVSMETGCQNVQLCSTILNVAFPPEVIGPLFFFPLLYTVFQLGEGLLLIAIFWCYEKFKTPKDKTKMIYTAATTEETIPGALGNGTYKGEDCSPCTA
For B5, the Km in data set [6] stood at 69.5 µM.

B6: murine Asbt (mAsbt) (Mus musculus) (protein)
chain: MDNSSVCPPNATVCEGDSCVVPESNFNAILNTVMSTVLTILLAMVMFSMGCNVEVHKFLGHIKRPWGIFVGFLCQFGIMPLTGFILSVASGILPVQAVVVLIMGCCPGGTGSNILAYWIDGDMDLSVSMTTCSTLLALGMMPLCLFVYTKMWVDSGTIVIPYDSIGISLVALVIPVSFGMFVNHKWPQKAKIILKIGSITGVILIVLIAVIGGILYQSAWIIEPKLWIIGTIFPIAGYSLGFFLARLAGQPWYRCRTVALETGMQNTQLCSTIVQLSFSPEDLNLVFTFPLIYTVFQLVFAAVILGIYVTYRKCYGKNDAEFLEKTDNEMDSRPSFDETNKGFQPDEK
As to B6, the Km in data set [6] (37.0 °C) came out at 272.3 µM.

A word on the Ki: it is the equilibrium dissociation constant of an inhibitor or competing ligand from its target. A word on the Km: it is the concentration of substrate that gives half-maximal velocity.
